In data set [1] the test system is Mycobacterium tuberculosis H37Rv. As to the kind of experiment: Microplate Alamar Blue Assay (MABA), aerobic. Type of data set: cell-based. In general terms: Alamar Blue is a resazurin reagent that responds to reducing activity.
The subject of data set [2] is M. tuberculosis H37Rv. As to the kind of experiment: Hypoxic (anaerobic) clonogenic MBC assay, dormant H37Rv. Type of data set: cell-based. The settings on record: for MBC: Mycobacterium tuberculosis.
The test system of data set [3] is Mycobacterium tuberculosis H37Rv. The following applies: MABA, 7H12 media, 90% reduction in fluorescence; cited from earlier work.
The test system of data set [4] is M. tuberculosis H37Rv. The settings on record: hypoxic MBC assay; cited from earlier work.
Another data set concerns VERO cells. Put plainly: Cytotoxicity against VERO cells (MTT, 72 hours exposure). Type of data set: cell-based. The following applies: for IC50: Chlorocebus sabaeus, Vero, read-out: IC50 in VERO cells.
The nature of data set [5]: Plasma concentration after administration to CD2F1 mice. The format is in vivo. From the text:
(§1) An oral MTD was not determined.

Data set [6] in a line: Toxicity (MTD, adverse effects) in mice. Type of data set: in vivo.
Text: determination of MTD ([…], MTD) in vivo (C57BL/6 female mice, i.p. administration of single doses, 1 week duration); and
as §1

A further data set can be described thus: Toxicity study in rats. The format is in vivo. The following applies: i.v. daily 16 mg/kg, female rats.
The nature of another data set: Toxicity study in dogs. Type of data set: in vivo. The settings on record: i.v. daily 10.95 mg/kg.
Data set [7] can be described thus: Water solubility and stability of aqueous stock solutions. The format is physicochemical. The settings on record: for solubility in water: hydrochloride salt. As for the experimental part:
Commercially available 4,7-dichloroquinoline (1) first was converted to the 4-fluoro-derivative (2) by refluxing for 6 hours in DMSO with lyophilized potassium fluoride (KF) (1.5 eq) from a 5% aqueous solution.
HRMS (VG 70-250SE mass spectrometer): Calculated for C16H16ClN5O2 (free amine): m/z 345.0992. […] FAB (VG 70-250SE mass spectrometer). Calculated for C16H17ClN5O2 (M+): m/z 346.

Data set [8] in a line: Stability in human plasma. The format is in vitro ADME.
For data set [9] the following is noted: in vivo, po, 600 mg; cited from earlier work.
[10] abbreviates: H37RV, pH 6.7, read-out: H37Rv MBC (hypoxic).
Setting [11] is: H37RV, present day anti-TB drugs as positive controls, read-out: H37Rv MBC (hypoxic assay).
The mark [12] stands for this setting: dormant H37Rv cells, ranges depending on the assay (Table 2), read-out: MBC (minimum bactericidal concentration).
Where [13] appears, read: dormant H37Rv cells, ranges depending on the assay (Table 2).
[14] abbreviates: present day anti-TB drugs as positive controls.
Where [15] appears, read: pH 6.7, read-out: % Inh (aerobic).
The mark [16] stands for this setting: H37RV, read-out: MBC (minimum bactericidal concentration).

≈ marks a conversion by molar mass, not a printed value. Counter-ions that a name gives are not always drawn. Like-named read-outs stand apart in the source and are kept apart here. A value given as a limit tells only on which side of the number the result lay.

Regarding `Cc1nc(C(F)(F)F)nc(NCCCn2ccnc2[N+](=O)[O-])c1C` [CF3PM], the inhibition at 6.25 µg/mL in data set [1] (aerobic conditions, 6.25 μg/mL, pH 6.7-6.8, read-out: % Inh (aerobic)) was 23%. The MBC in the data set with M. tuberculosis H37Rv [2] (setting [10]) is 7.01 to 25 µg/mL (≈ 20.4 to 72.6 µM).

In the case of `CC[C@H]1OC(=O)[C@H](C)[C@@H](O[C@H]2C[C@@](C)(OC)[C@@H](O)[C@H](C)O2)[C@H](C)[C@@H](O[C@@H]2O[C@H](C)C[C@H](N(C)C)[C@H]2O)[C@](C)(OC)C[C@@H](C)C(=O)[C@H](C)[C@@H](O)[C@]1(C)O` [Clarithromycin, clarithromycin], the MBC in the data set with M. tuberculosis H37Rv [2] (setting [11]) and with M. tuberculosis H37Rv [2] (setting [12]) was > 312 µg/mL each time. Besides, in the data set on M. tuberculosis H37Rv [2] (setting [13]), the “MBC (minimum bactericidal concentration)” value is > 312.5 µg/mL.

As for `NNC(=O)c1ccncc1` [Isoniazid, isoniazid], the MBC in the data set with M. tuberculosis H37Rv [2] (setting [11]) and with M. tuberculosis H37Rv [2] (setting [12]) was > 100 µg/mL in each case. In addition, in the data set on M. tuberculosis H37Rv [2] (setting [13]), the “MBC (minimum bactericidal concentration)” value was > 100 µg/mL. Further, the “expected MIC range (quality control)” value in data set [3] is 0.025 to 0.1 µg/mL.

Turning to `Cc1ncc([N+](=O)[O-])n1CCO` [Metronidazole, metronidazole], in the data set with M. tuberculosis H37Rv [4], the “activity in hypoxic assay” value is on record as “activity is observed only at very high concentrations”.

Take `CN(C)c1ccc(O)c2c1C[C@H]1C[C@H]3[C@H](N(C)C)C(O)=C(C(N)=O)C(=O)[C@@]3(O)C(O)=C1C2=O` [Minocyclin, minocyclin]: the “MBC (minimum bactericidal concentration)” value is >156.25 µg/mL against M. tuberculosis H37Rv [2] (setting [13]) and > 156.25 µg/mL in the data set on M. tuberculosis H37Rv [2] (dormant H37Rv cells, ranges depending on the assay (Table 2), listed as minocyclin). Moreover, in the data set on M. tuberculosis H37Rv [2] (setting [14]), the “H37Rv MBC (hypoxic assay)” value came out at 156.25 µg/mL.

One may read the IC50 as the concentration that inhibits the measured activity by half. The bioavailability is dose-corrected exposure relative to a reference, in per cent. A low value points to poor availability. Consider `O=[N+]([O-])c1nccn1CCCNc1ccnc2cc(Cl)ccc12` [NLCQ-1, 4-[3-(2-Nitro-1-imidazolyl)-propylamino]-7-chloroquinoline hydrochloride], for which, in data set [1] (setting [15]), the inhibition at 6.25 µg/mL came out at 0%. Also, the MBC with M. tuberculosis H37Rv [2] (setting [10]) is 3.1 µg/mL; in the data set with M. tuberculosis H37Rv [2] (setting [16]), 3.1 to 18.4 µg/mL. The IC50 in the data set on VERO cells was determined as 147 µg/mL. Also, the peak plasma concentration in [5] (i.p. injection of 10 mg/kg) was 8.9 µg/mL; in data set [5] (oral administration of 10 mg/kg), 0.461 µg/mL. The compound further showed a bioavailability in data set [5] (mouse, plasma, oral administration of 10 mg/kg) of 29%. This compound also displayed an MTD at 1 week in [6] (female, C57BL/6, mouse, in vivo, ip, single dose) of 30 mg/kg. The adverse effects entry in [6] (i.p. 30 mg/kg bolus or 45 mg/kg as 3 fractions of 15 mg/kg every two hours daily, mice) is “no adverse effects”; in the data set “Toxicity study in rats” it was “no adverse effects”; in “Toxicity study in dogs”, “no adverse effects”. Also, the MTD in data set [6] (mouse, in vivo, ip, multiple doses) is ≥ 45 mg/kg. For the same compound, the “hydrophilicity (aqueous solubility) compared with PA-824” value in data set [7] is reported as “more hydrophilic”. The “solubility in water” value in data set [7] is on record as “soluble in water”. For the same compound, the “stability in human plasma” value in data set [8] is on record as “good stability in human plasma”.

As for `O=[N+]([O-])c1nccn1CCCCNc1ccnc2cc(Cl)ccc12` [NLCQ-2, 4-[4-(2-nitro-1-imidazolyl)-butylamino]-7-chloroquinoline hydrochloride], in [1] (setting [15]), the inhibition at 6.25 µg/mL amounted to 0%. In addition, the MBC in the data set with M. tuberculosis H37Rv [2] (setting [10]) amounted to 6.25 µg/mL. Also, the MBC with M. tuberculosis H37Rv [2] (setting [16]) lay within 4.9 to 9.8 µg/mL. Also, the IC50 in the data set with VERO cells is > 640 µg/mL. Also, the “IC50 in VERO cells” value in the data set with VERO cells (toxicity, hydrochloride) is >640 µg/mL. For the same compound, in [7], the “hydrophilicity (aqueous solubility) compared with PA-824” value is given as “more hydrophilic” and the “solubility in water” value was “soluble in water”.

Turning to `O=[N+]([O-])c1cn2c(n1)OC[C@@H](OCc1ccc(OC(F)(F)F)cc1)C2` [PA-824], in the data set on M. tuberculosis H37Rv [2] (setting [16]), the MBC lay within 6.4 to 12.8 µg/mL (≈ 17.8 to 35.6 µM). For the same compound, in the data set on VERO cells (toxicity), the IC50 was > 640 µg/mL and the “IC50 in VERO cells” value is >640 µg/mL. For the same compound, the “SI, selectivity index (IC50/MBC)” value with VERO cells (VERO IC50 / MBC dormant H37Rv) is on record as >50-100.

For orientation: Cmax means the peak of the concentration-time curve. As to `CO[C@H]1/C=C/O[C@@]2(C)Oc3c(C)c(O)c4c(O)c(c(/C=N/N5CCN(C)CC5)c(O)c4c3C2=O)NC(=O)/C(C)=C\C=C\[C@H](C)[C@H](O)[C@@H](C)[C@@H](O)[C@@H](C)[C@H](OC(C)=O)[C@@H]1C` [Rifampin, rifampin], the MBC in the data set on M. tuberculosis H37Rv [2] (setting [11]) and in the data set on M. tuberculosis H37Rv [2] (setting [12]) was 2.5 µg/mL (≈ 3.04 µM) in each case. Moreover, in data set [9], the maximum concentration (Cmax) was 8000 ng/mL.

For `[H]/N=C(/N)N[C@H]1[C@H](O)[C@@H](O)[C@H](O[C@@H]2O[C@@H](C)[C@](O)(C=O)[C@H]2O[C@@H]2O[C@@H](CO)[C@H](O)[C@@H](O)[C@@H]2NC)[C@@H](N/C(N)=N\[H])[C@@H]1O` [Streptomycin, streptomycin], the MBC is 12.5 µg/mL (≈ 21.5 µM) in the data set on M. tuberculosis H37Rv [2] (setting [11]) and > 12.5 µg/mL with M. tuberculosis H37Rv [2] (setting [12]). Moreover, the “MBC (minimum bactericidal concentration)” value with M. tuberculosis H37Rv [2] (setting [13]) was > 12.5 µg/mL.

As for capreomycin, the “MBC (minimum bactericidal concentration)” value with M. tuberculosis H37Rv [2] (setting [13]) stood at 37.5 µg/mL. The “H37Rv MBC (hypoxic assay)” value with M. tuberculosis H37Rv [2] (setting [14]) was found to be 37.5 µg/mL.

These data come from patent US7618986B2, “Method of treating latent tuberculosis” (priority 2006, dated 2009).
